Experimental data reported in PubChem BioAssay AID330 (DTP/NCI, 2004).
“And” between values parts separate entries of the source, which are not always exact repeats. Equal values may be shown once. Inconclusive results and toxic doses are left out. The calls were made as follows: active = survival T/C of 150% or more; inactive = T/C below 125% in these data.

System: P388 leukemia ip, CD2F1 mice, survival T/C
Experiment: NCI In Vivo Anticancer Drug Screen. Data for tumor model P388 Leukemia (intraperitoneal) in CD2F1 (CDF1) mice
Details: endpoint: median survival time, higher = longer survival
Outline: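 Mice carrying the transplanted tumor received test compound or vehicle. Survival was recorded in each group, and the value is the treated-group measurement divided by that of the vehicle-treated control group.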

[1] = dose: 50.0 mg/kg/injection, schedule: Q01DX009 (ip), vehicle: saline with Tween-80
[2] = dose: 100.0 mg/kg/injection, schedule: Q01DX009 (ip), vehicle: saline with Tween-80
[3] = dose: 200.0 mg/kg/injection, schedule: Q01DX009 (ip), vehicle: saline with Tween-80
[4] = dose: 50.0 mg/kg/injection, schedule: Q01DX005 (ip), vehicle: saline with Tween-80
[5] = dose: 100.0 mg/kg/injection, schedule: Q01DX005 (ip), vehicle: saline with Tween-80
[6] = dose: 100.0 mg/kg/injection, schedule: Q01DX009 (ip), vehicle: Klucel (hydroxypropylcellulose) (HPC)
[7] = dose: 200.0 mg/kg/injection, schedule: Q01DX009 (ip), vehicle: Klucel (hydroxypropylcellulose) (HPC)
[8] = dose: 25.0 mg/kg/injection, schedule: Q01DX009 (ip), vehicle: saline with Tween-80
[9] = dose: 50.0 mg/kg/injection, schedule: Q01DX005 (ip), vehicle: Klucel (hydroxypropylcellulose) (HPC)
[10] = dose: 100.0 mg/kg/injection, schedule: Q01DX005 (ip), vehicle: Klucel (hydroxypropylcellulose) (HPC)
[11] = dose: 200.0 mg/kg/injection, schedule: Q01DX005 (ip), vehicle: Klucel (hydroxypropylcellulose) (HPC)
[12] = dose: 25.0 mg/kg/injection, schedule: Q01DX005 (ip), vehicle: Klucel (hydroxypropylcellulose) (HPC)

Measured: T/C

O=C([O-])CN(CCN(CC(=O)[O-])CC(=O)O)CC(=O)O.[Fe+5].[Na+]
inactive: [1] 91 % of control | [2] 91 % of control | dose: 100.0 mg/kg/injection, schedule: Q04DX003 (ip), vehicle: saline sonified 86 % of control | [3] 91 % of control | dose: 200.0 mg/kg/injection, schedule: Q04DX003 (ip), vehicle: saline sonified 90 % of control

CCOC(=O)N(O)c1ccc(C)cc1C
inactive: [4] 96 % of control | [5] 102 % of control

CC1=C/C(=N\NS(=O)(=O)c2ccc([N+](=O)[O-])cc2)CC(C)(C)C1
inactive: [6] 87 % of control | [7] 98 % of control | dose: 400.0 mg/kg/injection, schedule: Q01DX009 (ip), vehicle: Klucel (hydroxypropylcellulose) (HPC) 100 % of control

CC(C)(C)C1=CS(=O)(=O)C(C(C)(C)C)C(O)O1 (stereo not given)
inactive: [8] 100 % of control

COc1ccc2nc3cc(Cl)ccc3c(Nc3cccc(NC(C)=O)c3)c2n1
inactive: dose: 6.25 mg/kg/injection, schedule: Q01DX009 (ip), vehicle: other 108 % of control | dose: 12.5 mg/kg/injection, schedule: Q01DX009 (ip), vehicle: other 102 % of control | dose: 25.0 mg/kg/injection, schedule: Q01DX009 (ip), vehicle: other 102 % of control | dose: 50.0 mg/kg/injection, schedule: Q01DX009 (ip), vehicle: other 98 % of control | dose: 100.0 mg/kg/injection, schedule: Q01DX009 (ip), vehicle: other 99 % of control

CC(C)C(NC(=O)CCl)C(=O)O (stereo not given)
inactive: [6] 98 % of control | [7] 109 % of control

COc1cc(/C=C/C=C(C(=O)O)C(=O)O)ccc1OCc1ccccc1
inactive: [9] 100 % of control | [10] 98 % of control | [11] 92 % of control

COc1ccc(CC[n+]2cccc(C(=O)c3ccccc3)c2)cc1OC
inactive: dose: 12.5 mg/kg/injection, schedule: Q04DX002 (ip), vehicle: saline 97 % of control | dose: 25.0 mg/kg/injection, schedule: Q04DX002 (ip), vehicle: saline 105 % of control | dose: 50.0 mg/kg/injection, schedule: Q04DX002 (ip), vehicle: saline 101 % of control

CCCCCCCCCCC(CCCCCC)C(=O)O (stereo not given)
inactive: dose: 75.0 mg/kg/injection, schedule: Q01DX001 (ip), vehicle: saline with Tween-80 104 % of control | dose: 150.0 mg/kg/injection, schedule: Q01DX001 (ip), vehicle: saline with Tween-80 104 % of control | dose: 300.0 mg/kg/injection, schedule: Q01DX001 (ip), vehicle: saline with Tween-80 100 % of control

CCOC(=O)C1C(=O)C(CN(CCCl)CCCl)C(=O)C(C(=O)OCC)C1c1ccc(O)cc1 (stereo not given)
inactive: dose: 4.6 micrograms/kg/injection, schedule: Q01DX009 (ip), vehicle: Klucel (hydroxypropylcellulose) (HPC) 104 % of control | dose: 9.0 micrograms/kg/injection, schedule: Q01DX009 (ip), vehicle: Klucel (hydroxypropylcellulose) (HPC) 109 % of control | dose: 18.7 micrograms/kg/injection, schedule: Q01DX009 (ip), vehicle: Klucel (hydroxypropylcellulose) (HPC) 109 % of control | dose: 37.5 micrograms/kg/injection, schedule: Q01DX009 (ip), vehicle: Klucel (hydroxypropylcellulose) (HPC) 116 % of control

COc1cc(C/C(=N/N=C(N)N)C(=O)O)cc(OC)c1OC
inactive: dose: 100.0 mg/kg/injection, schedule: Q01DX001 (ip), vehicle: saline 99 % of control | dose: 200.0 mg/kg/injection, schedule: Q01DX001 (ip), vehicle: saline 100 % of control | dose: 400.0 mg/kg/injection, schedule: Q01DX001 (ip), vehicle: saline 100 % of control

CCOC1(OCC)Cc2nc3ccccc3cc21
inactive: dose: 50.0 mg/kg/injection, schedule: Q01DX005 (ip), vehicle: saline + Tween-80 + alcohol 106 % of control | dose: 100.0 mg/kg/injection, schedule: Q01DX005 (ip), vehicle: saline + Tween-80 + alcohol 109 % of control | dose: 200.0 mg/kg/injection, schedule: Q01DX005 (ip), vehicle: saline + Tween-80 + alcohol 106 % of control

O=C(O)C(Cc1ccccc1)NC(c1ccc(Cl)cc1)P(=O)(O)O (stereo not given)
inactive: dose: 60.0 mg/kg/injection, schedule: Q01DX005 (ip), vehicle: saline with Tween-80 98 % of control | dose: 120.0 mg/kg/injection, schedule: Q01DX005 (ip), vehicle: saline with Tween-80 105 % of control | dose: 240.0 mg/kg/injection, schedule: Q01DX005 (ip), vehicle: saline with Tween-80 97 % of control

NC(CCl)=NC1CCCCC1
inactive: dose: 10.0 mg/kg/injection, schedule: Q04DX003 (ip), vehicle: saline 109 % of control | dose: 15.0 mg/kg/injection, schedule: Q04DX003 (ip), vehicle: saline 107 % of control | dose: 22.0 mg/kg/injection, schedule: Q04DX003 (ip), vehicle: saline 111 % of control | dose: 33.0 mg/kg/injection, schedule: Q04DX003 (ip), vehicle: saline 116 % of control

O=C(OCC1C=C(OC(=O)c2ccccc2)C(=O)C(OC(=O)c2ccccc2)O1)c1ccccc1 (stereo not given)
inactive: dose: 6.25 mg/kg/injection, schedule: Q01DX009 (ip), vehicle: saline with Tween-80 98 % of control | dose: 12.5 mg/kg/injection, schedule: Q01DX009 (ip), vehicle: saline with Tween-80 94 % of control | [8] 86 % of control | [1] 89 % of control | [2] 93 % of control | [3] 102 % of control

C1[Se]CC12C[Se]C2
inactive: dose: 20.0 mg/kg/injection, schedule: Q01DX009 (ip), vehicle: saline with Tween-80 105 % of control

CCOC=C1C(=O)N(C)C(=O)N(C)C1=O
inactive: [1] 106 % of control | [2] 106 % of control | [3] 108 % of control

O=C(N/N=C\C12CC3CC(CC(C3)C1)C2)c1ccncc1
inactive: [1] 96 % of control | [2] 90 % of control

Cn1nnnc1-c1ccc(C(=O)O)cc1
inactive: [12] 102 % of control | [9] 102 % of control and 91 % of control | [10] 96 % of control | [11] 93 % of control

COc1cc2nc(C)[nH]c(=O)c2cc1OC
inactive: [9] 109 % of control | [10] 90 % of control | [11] 99 % of control

O=c1c2cc(OCO)ccc2[nH]c2cc3c(=O)c4cc(OCO)ccc4[nH]c3cc12
inactive: dose: 50.0 mg/kg/injection, schedule: Q01DX009 (ip), vehicle: saline 102 % of control | dose: 100.0 mg/kg/injection, schedule: Q01DX009 (ip), vehicle: saline 99 % of control | dose: 200.0 mg/kg/injection, schedule: Q01DX009 (ip), vehicle: saline 93 % of control

CCOC(=O)/C=C1\CCCn2c1ncc(C(=O)OCC)c2=O
inactive: dose: 60.0 mg/kg/injection, schedule: Q01DX005 (ip), vehicle: Klucel (hydroxypropylcellulose) (HPC) 101 % of control | dose: 120.0 mg/kg/injection, schedule: Q01DX005 (ip), vehicle: Klucel (hydroxypropylcellulose) (HPC) 100 % of control | dose: 240.0 mg/kg/injection, schedule: Q01DX005 (ip), vehicle: Klucel (hydroxypropylcellulose) (HPC) 108 % of control

O=C1CSC(c2ccccc2O)N1c1nncs1 (stereo not given)
inactive: [4] 94 % of control | [5] 93 % of control | dose: 200.0 mg/kg/injection, schedule: Q01DX005 (ip), vehicle: saline with Tween-80 93 % of control

CC1(c2ccccc2)CCCCC/C1=N/Nc1ccc([N+](=O)[O-])cc1[N+](=O)[O-] (stereo not given)
inactive: [12] 97 % of control | [9] 90 % of control | [10] 94 % of control
